Legend:
[1] = Human liver microsome stability assay; type: in vitro ADME; details: human liver microsomes, 1 μM, 37 °C; CLint = k/P
[2] = design: method as in PMID 27079428; details: cited from earlier work

C[C@]12CC[C@H]3[C@@H](CCC4=CC(=O)CC[C@@]43C)[C@@H]1CC[C@@H]2O [Testosterone, testosterone, reference compound]
CLint (intrinsic clearance) [1]: 0.0727 mL/min/mg Protein

[2H]C([2H])([2H])Oc1cc2c(cc1OC([2H])([2H])[2H])C1CC(=O)C(CC(C)C)CN1CC2 (stereo not drawn) [deutetrabenazine]
t1/2 [2]: 8.6 h

COc1cc2c(cc1OC)C1CC(=O)C(CC(C)C)CN1CC2 (stereo not drawn) [tetrabenazine]
t1/2 [2]: 4.8 h
